{"source": "patent US20140235502A1", "about": "“METHOD FOR SCREENING AND QUANTIFYING ISOPRENE BIOSYNTHESIS ENZYME ACTIVITY” (Institute of Bioscience and Biotechnology, priority 2013, published 2014)", "molecules": {"B1": {"name": "IspSm2: mutant IspSm1 containing L35R (SEQ ID NO: 8), screened from random mutant library (protein)", "chain": "MACSVSTENVSFTETETETRRSANYEPNSWDYDYRLSSDTDESIEVYKDKAKKLEAEVRREINNEKAEFLTLLELIDNVQRLGLGYRFESDIRRALDRFVSSGGFDAVTKTSLHATALSFRLLRQHGFEVSQEAFSGFKDQNGNFLENLKEDIKAILSLYEASFLALEGENILDEAKVFAISHLKELSEEKIGKDLAEQVNHALELPLHRRTQRLEAVLSIEAYRKKEDADQVLLELAILDYNMIQSVYQRDLRETSRWWRRVGLATKLHFARDRLIESFYWAVGVAFEPQYSDCRNSVAKMFSFVTIIDDIYDVYGTLDELELFTNAVERWDVNAIDDLPDYMKLCFLALYNTINEIAYDNLKEKGENILPYLTKAWADLCNAFLQEAKWLYNKSTPTFDDYFGNAWKSSSGPLQLVFAYFAVVQNIKKEEIENLQKYHDIISRPSHIFRLCNDLASASAEIARGETANSVSCYMRTKGISEELATESVMNLIDETWKKMNKEKLGGSLFAKPFVETAINLARQSHCTYHNGDAHTSPDELTRKRVLSVITEPILPFER", "modifications": "IspSm2"}}, "key": {"[1]": {"system": "IspGESS artificial genetic circuit (TbuT regulator)", "assay": "Quantitative fluorescence response of pIspGESS-containing recombinant E. coli to added compounds (FACS)", "format": "cell-based, E. coli DH5α", "conditions": "for response of IspGESS fluorescence to the compound: 0-2000 μM, FACS; for concentration from which fluorescence started to be sensed: pIspGESS in E. coli DH5α, M9 medium, 30° C. 18 hours, FACS FL1-H", "description": "In order to examine the isoprene, toluene, benzene and phenol compounds sensing function of pIspGESS-containing recombinant E. coli, pIspGESS of Example 1 was introduced into a single colony of E. coli DH5α (NEB, USA) by heat shock, and then the E. coli colony was inoculated into an LB liquid medium (1% (w/v) trypton, 0.5% (w/v) yeast extract, and 1% (w/v) sodium chloride) supplemented with 50 μg/Ml of ampicillin and was cultured with shaking at 37° C. for 14 hours. The culture was inoculated into M9 minimal medium (containing 50 μg/Ml ampicillin, 4% glucose and 1% thiamine) at a concentration of 1% and then cultured with shaking at 37° C. for 6 hours. Various concentrations (0-2000 μM) of isoprene was added to each of the test tubes containing the culture broth, after then the culture was cultured with shaking at 30° C. for 18 hours, thereby inducing the expression of fluorescence in the culture. The intensity of intracellular fluorescence induced by each concentration of toluene was analyzed by a FACS Calibur system (Becton Dickinson, USA). As a detector, a FSC, SSC, FL1-H (excitation=488 nm, emission=530/30 nm) detector was set, and data obtained by observing 10,000 samples were analyzed using CellQuest Pro (Becton Dickinson, USA)."}, "[2]": {"system": "IspGESS artificial genetic circuit", "assay": "Detection of isoprene synthase activity with IspGESS, pCDF vector (FACS)", "format": "cell-based", "conditions": "E. coli BL21(DE3), FACS 10,000 cells", "description": "First, the IspSm1 gene was inserted into the NcoI-AvrII restriction enzyme site of a pCDF-duet vector (Novagen, USA) to prepare pCDF-IspSm1, which was then introduced into an E. coli BL21 (DE3) strain (NEB, USA) containing pIspGESS of […] of ampicillin and 10 μg/Ml of streptomycin were added to LB liquid medium containing 0.1 mM of IPTG (isopropyl-thio-β-Dgalactopyranoside), and E. coli cells were cultured with shaking in the LB liquid medium at 37° C. for 16 hours. Then, the cultured cells were transferred into M9 liquid medium containing 0.1 mM IPTG and were cultured at 28° C. and 200 rpm for 20 hours. […] The intensity of fluorescence in the cultured cells was analyzed using a FACS Calibur system (Becton Dickinson, USA). As a detector, a FSC, SSC, FL1-H (excitation=488 nm, emission=530/30 nm) detector was set, and data obtained by observing 10,000 samples were analyzed.\nAs a result, 5×10^5 of mutant library was constructed. […] With the criterion for screening, cells showing fluorescence intensity which is at least 50% higher than that of IspSm1 were sorted using a FACScalibur system (Becton Dickinson, USA). Then, 6 clones having higher fluorescence intensity than IspSm1 were isolated.\nThe activities of the isolated clones were analyzed by a FACS. As detectors, FSC, SSC, FL1-H (excitation=488 nm, emission=530/30 nm) detectors were set, and 10,000 cells were analyzed."}, "[3]": {"system": "IspGESS artificial genetic circuit", "assay": "Detection of isoprene synthase activity with IspGESS, pPROLar vector (FACS, t-test)", "format": "cell-based", "conditions": "E. coli DH5α", "description": "First, IspSm1 and IspSm2 genes were amplified using PCR with primers (SEQ ID NOS: 13, 14), and inserted into the NdeI-XbaI restriction enzyme site of a pPROLar vector for pPROLar-ispSm1 and pPROLar-ispSm2 (SEQ ID NOS: 15, 16). Then these two vectors were transformed into an E. coli DH5α strain containing IspGESS of Example 1. 50 μg/Ml of ampicillin and 10 μg/Ml of kanamycin were added to LB liquid medium, and E. coli cells were cultured with shaking in the LB liquid medium at 37° C. for 16 hours. 4 Ml of the culture medium was placed in a 10 Ml vial and the cultured bacterial strain was then inoculated at a concentration of 1%. Then, the vial was sealed with a septum and the cells were cultured at 28° C. and 200 rpm for 24 hours. The intensity of fluorescence in the cultured cells was analyzed using a FACScalibur system (Becton Dickinson, USA). As detectors, FSC, SSC, and FL1-H (excitation=488 nm, emission=530/30 nm) detectors were set, and 10,000 samples were analyzed.\nTo verify the fluorescence differences of IspSm1, IspSm2 and no IspS induction control, the flow cytometry data was analyzed by t-test. The t-test compared the mean values of the fluorescence signals between the negative control (IspGESS without IspSm1 (IspSm2) induction) and the case that includes IspSm1 (IspSm2) inducer. […] Note that there are three replicates of each case (FIG. 8)."}}}
{"molecule": "c1ccccc1", "note": "[benzene]", "values": [{"measurement": "response of IspGESS fluorescence to the compound", "setting": "[1]", "value": "responded"}, {"measurement": "concentration from which fluorescence started to be sensed", "setting": "[1]", "value": 1, "unit": "µM"}]}
{"molecule": "Cc1ccccc1", "note": "[toluene]", "values": [{"measurement": "response of IspGESS fluorescence to the compound", "setting": "[1]", "value": "responded"}, {"measurement": "concentration from which fluorescence started to be sensed", "setting": "[1]", "value": 0.5, "unit": "µM"}]}
{"molecule": "Oc1ccccc1", "note": "[phenol]", "values": [{"measurement": "response of IspGESS fluorescence to the compound", "setting": "[1]", "value": "responded"}, {"measurement": "concentration from which fluorescence started to be sensed", "setting": "[1]", "value": 50, "unit": "µM"}]}
{"molecule": "C=CC(=C)C", "note": "[isoprene]", "values": [{"measurement": "response of IspGESS fluorescence to the compound", "setting": "[1]", "value": "increased as the isoprene concentration increased"}, {"measurement": "concentration from which fluorescence started to be sensed", "setting": "[1]", "value": 50, "unit": "µM"}]}
{"molecule": "B1", "values": [{"measurement": "fluorescence intensity / isoprene synthesis activity compared with IspSm1", "setting": "[2]", "value": "two times higher"}, {"measurement": "fluorescent mean intensity compared with IspGESS with IspSm1", "setting": "[3]", "value": "higher"}, {"measurement": "intensity of fluorescence compared with cells containing neither IspSm1 nor IspSm2", "setting": "[3]", "value": "higher"}]}
